# Key:
# carotid artery = assay: FeCl3-induced carotid arterial injury model (arterial thrombosis); format: in vivo, rat (male Sprague-Dawley); details: rat; IV bolus 0.75 mg/kg then IV infusion 50 μg/kg/min; time to occlusion in drug-treated divided by control; 60 minutes monitoring
# Procedure: The FeCl3-- induced injury to the carotid artery in rats was induced according to the method described by Kurz K. D., Main R. W., Sandusky G. E., Thrombosis Research, 1990; 60:269-280 and Schumacher W. A., et al., J. Pharmacology and Experimental Therapeutics, 1993; 267:1237-1242.
# Male, Sprague-Dawley rats (375-410 g) were anesthetized with urethane (1500 mg/kg ip). Animals were laid on a 37° C. heating pad. The carotid artery was exposed through a midline cervical incision. Careful blunt dissection was used to isolate the vessel from the carotid sheath. Using forceps, the artery was lifted to provide sufficient clearance to insert two small pieces of polyethylene tubing (PE-205) underneath it. A temperature probe (Physitemp MT23/3) was placed between one of the pieces of tubing and the artery. Injury was induced by topical application on the carotid artery above the temperature probe of a small disc (3 mm dia.) of Whatman No. 1 filter paper previously dipped in a 35% solution of FeCl3. […] The vessel temperature was monitored for 60 minutes after application of FeCl3 as an indication of blood flow. Vessel temperature changes were recorded on a thermistor (Cole-Palmer Model 08533-41).
# The time between the FeCl3 application and the time at which the vessel temperature decreased abruptly (>2.4° C.) was recorded as the time to occlusion of the vessel. […]
# trypsin = target: T1, trypsin (Bos taurus, UniProt P00760); assay: Determination of Trypsin IC50 (chromogenic substrate S2222); format: biochemical; details: 60 minutes incubation at room temperature
# T1 sequence (P00760 24-246): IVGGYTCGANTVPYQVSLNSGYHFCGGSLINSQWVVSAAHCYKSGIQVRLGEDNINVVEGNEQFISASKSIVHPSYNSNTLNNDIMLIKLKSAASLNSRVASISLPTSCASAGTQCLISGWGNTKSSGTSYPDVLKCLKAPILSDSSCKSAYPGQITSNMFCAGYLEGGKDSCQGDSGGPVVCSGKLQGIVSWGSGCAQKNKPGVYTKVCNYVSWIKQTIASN
# Procedure: (§1) The ability of compounds to act as inhibitors of trypsin catalytic activity is assessed by determination of that concentration of test substance that inhibits by 50% (IC50) the ability of trypsin to cleave the chromogenic substrate S2222 (N-Bz-L-Ile-L-Glu-L-Gly-L-Arg-p-nitroanilide.cndot.HCl). Typically, trypsin in 10 mM HEPES, 100 mM NaCl, 0.05% BSA, and 0.1% PEG-8000, and the test substance in DMSO are incubated for 60 minutes at room temperature. To this mixture is added S2222 and the velocity of S2222 hydrolysis measured by observing the intensity of absorbance at 405 nm over 5 minutes.
# Factor Xa = Factor Xa (Homo sapiens, UniProt P00742); assay: Determination of Factor Xa IC50 (chromogenic substrate S2765); format: biochemical; details: 60 minutes incubation at room temperature
# Procedure: as §1, with “Factor Xa” for “trypsin”, “S2765 (N-CBz-D-Arg-L-Gly-L-Arg-p-nitroanilide.cndot.2 HCl).” for “S2222 (N-Bz-L-Ile-L-Glu-L-Gly-L-Arg-p-nitroanilide.cndot.HCl).”, “PEG-8000” for “PEG-8000,”, “S2765” for “S2222”
# human thrombin = human thrombin (Homo sapiens, UniProt P00734); assay: Determination of Thrombin Ki (fluorogenic substrate Tos-Gly-Pro-Arg-AMC); format: biochemical; details: 50 mM Tris-HCl pH 7.52 at 37° C., 0.1 M NaCl, 0.1% poly(ethylene glycol) 8000, room temperature
# Procedure: Compounds of the present invention may be prepared for assay by dissolving them in buffer to give solutions ranging in concentrations from 1 to 100 μM. In an assay to determine the inhibitory dissociation constant, Ki, for a given compound, a chromogenic or fluorogenic substrate of thrombin is added to a solution containing a test compound and thrombin; the resulting catalytic activity of the enzyme is spectrophotometrically determined. This assay is well-known to those skilled in the art and is commonly used to determine antithrombotic activity.
# The affinity of inhibitors for thrombin was measured according to the procedures described in (DiMaio, et al., J. Biol. Chem., 1990; 265:21698). Inhibition of amidolytic activity of human thrombin was measured fluorometrically using Tos-Gly-Pro-Arg-AMC as a fluorogenic substrate in 50 mM Tris-HCl buffer (pH 7.52 at 37° C.) containing 0.1 M NaCl and 0.1% poly(ethylene glycol) 8000 at room temperature. Buffer substrate and inhibitor were mixed, and the reaction was initiated by adding the enzyme solution. Initial velocities were recorded at several inhibitor and substrate concentrations. Kinetic parameters were determined by fitting the data to a general equation describing enzyme inhibition (Segel, Enzyme Kinetics, Wiley Interscience Publications, 1993). […]
# Sequence of Factor Xa (P00742 235-488 limits assumed): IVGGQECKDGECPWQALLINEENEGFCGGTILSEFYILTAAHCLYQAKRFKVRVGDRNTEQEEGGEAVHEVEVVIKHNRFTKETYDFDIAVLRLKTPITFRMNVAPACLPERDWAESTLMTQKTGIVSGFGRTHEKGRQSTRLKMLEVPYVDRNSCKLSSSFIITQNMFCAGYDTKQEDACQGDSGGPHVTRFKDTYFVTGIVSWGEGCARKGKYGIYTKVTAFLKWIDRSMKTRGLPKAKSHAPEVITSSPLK
# Sequence of Factor Xa (P00742 41-179 limits assumed): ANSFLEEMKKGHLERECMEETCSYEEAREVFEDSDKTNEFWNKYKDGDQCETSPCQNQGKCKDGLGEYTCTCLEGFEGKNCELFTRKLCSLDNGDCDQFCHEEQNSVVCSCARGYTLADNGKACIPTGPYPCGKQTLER
compound,measurement,setting,value
"N=C(N)NCCC[C@H](NC(=O)[C@@H]1CC[C@H]2C(=O)N(CCCc3ccccc3)CC(=O)N12)C(=O)c1nccs1 [Example 11, [6S-[6α(R*),8aα]]-1,4-Dioxo-2-(3-phenyl-propyl)-octahydropyrrolo[1,2-a]pyrazine-6-carboxylic acid [4-guanidino-1-(thiazol-2-carbonyl)-butyl]-amide]",Fold Shift in MOT (mean occlusion time),carotid artery,> 3.3
same,IC50,trypsin,< 1 nM
same,IC50,Factor Xa,30 nM
same,Ki,human thrombin,3 nM

# Source: patent US6124291A, “Pyrrolo[1,2-a]pyrazine-1,4-dione serine protease inhibitors” (Warner-Lambert Company, priority 1998, dated 2000)
